Measurements from PMC4177084 (Journal of Thyroid Research, 2014).

Tests used:
PDGFRα = target: T1, PDGFRα (Homo sapiens, UniProt P16234); experiment: Cell free kinase inhibition assay; format: biochemical
T1 construct: purchased Carna Biosciences, Inc. (Kobe, Japan)

CDK6 = target: T2, CDK6 (Homo sapiens, UniProt Q00534); experiment: Cell free kinase inhibition assay; format: biochemical
T2 construct: purchased Carna Biosciences, Inc. (Kobe, Japan)

[1] = Macroscopic changes and body weight during treatment of xenograft-bearing mice; format: in vivo; settings: nude mice bearing xenografts, during daily oral treatment
Experimental: Tumor cells were cultured in appropriate culture mediums. Cells were harvested with 0.05% or 0.25% (w/v) trypsin/EDTA and suspended with 50% (v/v) BD Matrigel (BD Biosciences, San Jose, CA) in the mixture of culture mediums at a density of 5–10 × 10^7 cells/mL. Then, 0.1-0.2 mL of the cell suspension was inoculated subcutaneously into the right flank region of each mouse. […] The tumor size was measured in two dimensions by using a caliper, and the volume was calculated by using the formula: tumor volume (mm^3) = 1/2 length (mm) × [width (mm)]^2. The change in tumor volume in the treated group relative to that in the control group was calculated according to the following formula: ΔT/C = (ΔT/ΔC) × 100%, where ΔT and ΔC are the change in tumor volume (i.e., growth) for the treated and vehicle control group, respectively. The percentage of tumor growth inhibition (%TGI) was calculated from the formula: [(1 − ΔT/ΔC) × 100].

TCO-1 cells = experiment: Antiproliferation assay (WST-8); format: cell-based; settings: Homo sapiens, 72 h; TCO-1 (ATC), antiproliferative, 3 days
FTC-236 cells = experiment: Antiproliferation assay (WST-8); format: cell-based, human; settings: Homo sapiens, 72 h; FTC-236 (DTC), antiproliferative, 3 days; read-out: IC50
FLT3 = target: T3, FLT3 (Homo sapiens, UniProt P36888); experiment: Cell free kinase inhibition assay; format: biochemical
T3 construct: purchased Carna Biosciences, Inc. (Kobe, Japan)

FGFR4 = target: T4, FGFR4 (Homo sapiens, UniProt P22455); experiment: Cell free kinase inhibition assay; format: biochemical
T4 construct: purchased Carna Biosciences, Inc. (Kobe, Japan)

PDGFRα(V561D) = target: T5, PDGFRα(V561D) (Homo sapiens, UniProt P16234, V561D); experiment: Cell free kinase inhibition assay; format: biochemical
T5 construct: purchased Carna Biosciences, Inc. (Kobe, Japan)

EPHA1 = target: T6, EPHA1 (Homo sapiens, UniProt P21709); experiment: Cell free kinase inhibition assay; format: biochemical
T6 construct: purchased Carna Biosciences, Inc. (Kobe, Japan)

8505C cells = experiment: Antiproliferation assay (WST-8); format: cell-based; settings: Homo sapiens, 72 h; 8505C (ATC), antiproliferative, 3 days
PLK1 = target: T7, PLK1 (Homo sapiens, UniProt P53350); experiment: Cell free kinase inhibition assay; format: biochemical
T7 construct: purchased Carna Biosciences, Inc. (Kobe, Japan)

FRS2 = experiment: Western blot of FRS2 phosphorylation in RO82-W-1 xenografts; format: in vivo, nude mice; settings: 2 h after single oral 3, 10, 30, or 100 mg/kg
BRK = target: T8, BRK (Homo sapiens, UniProt Q13882); experiment: Cell free kinase inhibition assay; format: biochemical
T8 construct: purchased Carna Biosciences, Inc. (Kobe, Japan)

CDK4 = target: T9, CDK4 (Homo sapiens, UniProt P11802); experiment: Cell free kinase inhibition assay; format: biochemical
T9 construct: purchased Carna Biosciences, Inc. (Kobe, Japan)

FLT4/VEGFR3 = target: T10, FLT4/VEGFR3 (Homo sapiens, UniProt P35916); experiment: Cell free kinase inhibition assay; format: biochemical
T10 construct: purchased Carna Biosciences, Inc. (Kobe, Japan)

RAF1 = target: T11, RAF1 (Homo sapiens, UniProt P04049); experiment: Cell free kinase inhibition assay; format: biochemical
T11 construct: purchased Carna Biosciences, Inc. (Kobe, Japan)

FRK = target: T12, FRK (Homo sapiens, UniProt P42685); experiment: Cell free kinase inhibition assay; format: biochemical
T12 construct: purchased Carna Biosciences, Inc. (Kobe, Japan)

EPHB3 = target: T13, EPHB3 (Homo sapiens, UniProt P54753); experiment: Cell free kinase inhibition assay; format: biochemical
T13 construct: purchased Carna Biosciences, Inc. (Kobe, Japan)

HGK = target: T14, HGK (Homo sapiens, UniProt O95819); experiment: Cell free kinase inhibition assay; format: biochemical
T14 construct: purchased Carna Biosciences, Inc. (Kobe, Japan)

KHM-5M cells = experiment: Antiproliferation assay (WST-8); format: cell-based; settings: Homo sapiens, 72 h; KHM-5M (ATC), antiproliferative, 3 days
[2] = system: human thyroid cancer cell lines; experiment: Antiproliferation assay, panel of 11 cell lines; format: cell-based; settings: 9 out of the 11 cell lines, in vitro antiproliferative
Experimental: The human DTC cell lines K1, FTC-133, FTC-236, FTC-238, and RO82-W-1 and the human thyroid follicular epithelial cell line Nthy-ori 3-1 were obtained from DS Pharma Biomedical Co., Ltd. (Osaka, Japan). The human MTC cell line TT was obtained from the American Type Culture Collection (Manassas, VA). The human ATC cell lines 8305C, 8505C, HTC/C3, KHM-5M, and TCO-1 were obtained from the Japanese Collection of Research Bioresources Cell Bank (Osaka, Japan). […]
Cells (1,000–3,000/well) were seeded and cultured in 96-well culture plates. […] Cell numbers were determined by using WST-8 (Dojindo, Kumamoto, Japan); 10 μL of WST-8 was added to each well, and absorbance was measured at a wavelength of 450 nm and compared with a reference measurement at 660 or 665 nm by using an MTP-500 microplate reader (Corona Electric, Ibaraki, Japan) or an EnVision Multilabel Reader (Perkin Elmer, Turku, Finland). […]

PKACα = target: T15, PKACα (Homo sapiens, UniProt P17612); experiment: Cell free kinase inhibition assay; format: biochemical
T15 construct: purchased Carna Biosciences, Inc. (Kobe, Japan)

FTC-238 cells = experiment: Antiproliferation assay (WST-8); format: cell-based, human; settings: Homo sapiens, 72 h; FTC-238 (DTC), antiproliferative, 3 days

T2 sequence (Q00534 whole entry): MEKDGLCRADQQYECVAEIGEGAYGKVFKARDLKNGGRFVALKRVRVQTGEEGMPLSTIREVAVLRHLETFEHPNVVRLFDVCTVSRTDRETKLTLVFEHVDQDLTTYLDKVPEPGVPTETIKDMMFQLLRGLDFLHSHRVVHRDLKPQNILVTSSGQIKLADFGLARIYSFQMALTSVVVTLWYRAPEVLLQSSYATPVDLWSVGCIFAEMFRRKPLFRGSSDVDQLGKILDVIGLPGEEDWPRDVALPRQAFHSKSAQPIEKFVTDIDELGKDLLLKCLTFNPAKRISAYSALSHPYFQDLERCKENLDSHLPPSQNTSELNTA
T2 sequence (P30281 whole entry partner): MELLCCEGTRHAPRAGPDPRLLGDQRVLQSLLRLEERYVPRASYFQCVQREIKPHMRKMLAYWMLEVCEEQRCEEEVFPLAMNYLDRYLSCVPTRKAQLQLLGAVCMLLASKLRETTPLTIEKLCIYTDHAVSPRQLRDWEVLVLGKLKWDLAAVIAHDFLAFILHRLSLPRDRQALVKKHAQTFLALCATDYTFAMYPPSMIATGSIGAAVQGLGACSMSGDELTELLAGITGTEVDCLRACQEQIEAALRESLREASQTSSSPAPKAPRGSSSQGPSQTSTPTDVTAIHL
T11 sequence (P04049 whole entry): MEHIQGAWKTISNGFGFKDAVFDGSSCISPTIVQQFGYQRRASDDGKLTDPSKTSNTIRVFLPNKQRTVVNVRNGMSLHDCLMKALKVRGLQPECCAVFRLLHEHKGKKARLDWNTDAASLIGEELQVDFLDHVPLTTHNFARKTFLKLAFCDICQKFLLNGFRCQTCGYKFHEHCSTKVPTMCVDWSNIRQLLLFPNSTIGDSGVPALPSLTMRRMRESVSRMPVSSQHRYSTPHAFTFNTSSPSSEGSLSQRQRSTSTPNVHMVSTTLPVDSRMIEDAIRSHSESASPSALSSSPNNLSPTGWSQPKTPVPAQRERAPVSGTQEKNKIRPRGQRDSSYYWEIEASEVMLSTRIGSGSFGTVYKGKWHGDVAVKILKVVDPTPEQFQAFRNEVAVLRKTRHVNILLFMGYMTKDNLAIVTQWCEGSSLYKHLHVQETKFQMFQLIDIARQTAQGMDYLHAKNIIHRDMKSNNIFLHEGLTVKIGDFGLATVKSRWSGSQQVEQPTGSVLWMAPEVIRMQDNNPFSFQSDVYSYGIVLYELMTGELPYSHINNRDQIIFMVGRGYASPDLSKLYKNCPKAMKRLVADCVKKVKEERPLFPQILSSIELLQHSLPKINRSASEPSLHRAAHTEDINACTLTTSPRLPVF
T12 sequence (P42685 whole entry): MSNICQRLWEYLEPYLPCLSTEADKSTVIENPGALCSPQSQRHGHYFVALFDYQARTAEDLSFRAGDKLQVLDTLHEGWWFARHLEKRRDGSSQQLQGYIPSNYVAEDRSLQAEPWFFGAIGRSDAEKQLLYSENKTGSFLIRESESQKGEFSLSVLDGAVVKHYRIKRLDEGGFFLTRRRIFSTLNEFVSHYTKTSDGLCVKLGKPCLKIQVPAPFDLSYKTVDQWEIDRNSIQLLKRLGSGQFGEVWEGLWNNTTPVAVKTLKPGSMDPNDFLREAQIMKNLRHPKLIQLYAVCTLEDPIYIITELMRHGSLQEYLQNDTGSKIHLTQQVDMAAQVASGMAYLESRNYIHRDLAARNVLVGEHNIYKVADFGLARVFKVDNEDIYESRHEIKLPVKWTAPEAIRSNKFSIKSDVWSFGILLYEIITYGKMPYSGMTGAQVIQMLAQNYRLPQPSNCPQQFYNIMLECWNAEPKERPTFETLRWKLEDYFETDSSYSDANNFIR
T10 sequence (P35916 25-1363): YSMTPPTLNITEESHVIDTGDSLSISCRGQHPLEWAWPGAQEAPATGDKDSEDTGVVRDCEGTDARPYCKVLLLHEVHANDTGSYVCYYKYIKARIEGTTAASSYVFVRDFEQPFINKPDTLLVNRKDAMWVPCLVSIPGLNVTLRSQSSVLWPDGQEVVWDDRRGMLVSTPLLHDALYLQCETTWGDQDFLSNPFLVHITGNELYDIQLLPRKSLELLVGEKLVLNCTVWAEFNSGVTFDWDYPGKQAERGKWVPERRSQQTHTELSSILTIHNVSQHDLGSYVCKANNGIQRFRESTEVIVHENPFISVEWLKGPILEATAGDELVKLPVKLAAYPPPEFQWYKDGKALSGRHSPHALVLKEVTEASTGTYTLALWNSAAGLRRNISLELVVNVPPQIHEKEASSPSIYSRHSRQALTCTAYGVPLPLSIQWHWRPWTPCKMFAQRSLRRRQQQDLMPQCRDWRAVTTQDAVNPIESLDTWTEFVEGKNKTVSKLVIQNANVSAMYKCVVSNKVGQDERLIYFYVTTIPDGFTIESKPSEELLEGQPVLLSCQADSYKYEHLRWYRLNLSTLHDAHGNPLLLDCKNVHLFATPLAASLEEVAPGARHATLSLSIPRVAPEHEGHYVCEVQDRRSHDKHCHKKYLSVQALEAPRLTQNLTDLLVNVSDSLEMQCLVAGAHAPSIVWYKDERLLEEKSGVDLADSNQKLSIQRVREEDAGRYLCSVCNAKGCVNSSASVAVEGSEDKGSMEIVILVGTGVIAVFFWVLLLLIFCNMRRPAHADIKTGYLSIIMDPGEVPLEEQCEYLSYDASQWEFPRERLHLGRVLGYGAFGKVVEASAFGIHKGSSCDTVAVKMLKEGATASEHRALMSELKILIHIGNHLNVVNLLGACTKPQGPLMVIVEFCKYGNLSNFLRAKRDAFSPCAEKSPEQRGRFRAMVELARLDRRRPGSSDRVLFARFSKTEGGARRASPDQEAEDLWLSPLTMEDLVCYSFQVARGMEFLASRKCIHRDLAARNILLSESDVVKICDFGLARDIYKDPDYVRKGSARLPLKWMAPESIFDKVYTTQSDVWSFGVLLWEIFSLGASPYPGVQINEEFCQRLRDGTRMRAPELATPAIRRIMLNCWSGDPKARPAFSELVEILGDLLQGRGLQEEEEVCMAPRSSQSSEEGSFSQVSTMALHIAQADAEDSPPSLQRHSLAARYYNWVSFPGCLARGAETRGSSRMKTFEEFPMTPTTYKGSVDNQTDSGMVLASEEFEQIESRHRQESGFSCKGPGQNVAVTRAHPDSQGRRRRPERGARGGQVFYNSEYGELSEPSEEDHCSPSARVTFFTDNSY
T9 sequence (P11802 whole entry): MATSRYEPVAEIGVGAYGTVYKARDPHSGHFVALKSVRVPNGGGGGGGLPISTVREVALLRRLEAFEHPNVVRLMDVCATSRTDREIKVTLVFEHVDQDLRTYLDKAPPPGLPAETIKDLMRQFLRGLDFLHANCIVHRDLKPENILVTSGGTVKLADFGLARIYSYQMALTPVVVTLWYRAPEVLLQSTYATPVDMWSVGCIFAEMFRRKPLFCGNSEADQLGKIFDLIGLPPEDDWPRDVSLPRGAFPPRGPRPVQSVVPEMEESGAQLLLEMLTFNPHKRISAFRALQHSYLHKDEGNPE
T9 sequence (P30281 whole entry partner): as the sequence (P30281 whole entry partner) above
T3 sequence (P36888 27-993): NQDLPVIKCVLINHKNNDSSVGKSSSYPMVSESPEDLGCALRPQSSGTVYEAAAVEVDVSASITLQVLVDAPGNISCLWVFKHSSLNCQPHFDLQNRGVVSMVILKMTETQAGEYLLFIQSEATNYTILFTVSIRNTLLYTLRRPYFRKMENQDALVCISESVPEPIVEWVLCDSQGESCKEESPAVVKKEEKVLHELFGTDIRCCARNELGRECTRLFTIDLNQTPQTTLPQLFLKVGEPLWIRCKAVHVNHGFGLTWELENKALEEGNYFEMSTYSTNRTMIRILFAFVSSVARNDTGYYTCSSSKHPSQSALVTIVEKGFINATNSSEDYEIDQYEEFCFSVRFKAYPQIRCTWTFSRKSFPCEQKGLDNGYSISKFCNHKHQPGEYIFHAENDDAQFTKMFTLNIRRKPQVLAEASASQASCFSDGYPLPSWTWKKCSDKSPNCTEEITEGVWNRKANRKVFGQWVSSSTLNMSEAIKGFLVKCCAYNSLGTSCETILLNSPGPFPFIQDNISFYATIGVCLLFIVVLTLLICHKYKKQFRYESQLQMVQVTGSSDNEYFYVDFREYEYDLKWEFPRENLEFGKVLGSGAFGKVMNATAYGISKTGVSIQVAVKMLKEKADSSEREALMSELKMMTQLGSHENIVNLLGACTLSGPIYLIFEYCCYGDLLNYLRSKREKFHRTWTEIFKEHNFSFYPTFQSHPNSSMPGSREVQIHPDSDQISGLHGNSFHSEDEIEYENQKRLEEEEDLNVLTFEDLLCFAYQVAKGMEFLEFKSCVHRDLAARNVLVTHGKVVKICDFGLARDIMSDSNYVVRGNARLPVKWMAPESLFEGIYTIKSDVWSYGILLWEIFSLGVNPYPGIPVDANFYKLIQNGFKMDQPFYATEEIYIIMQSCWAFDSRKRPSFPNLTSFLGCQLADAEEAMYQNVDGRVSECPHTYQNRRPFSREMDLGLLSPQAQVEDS
T7 sequence (P53350 whole entry): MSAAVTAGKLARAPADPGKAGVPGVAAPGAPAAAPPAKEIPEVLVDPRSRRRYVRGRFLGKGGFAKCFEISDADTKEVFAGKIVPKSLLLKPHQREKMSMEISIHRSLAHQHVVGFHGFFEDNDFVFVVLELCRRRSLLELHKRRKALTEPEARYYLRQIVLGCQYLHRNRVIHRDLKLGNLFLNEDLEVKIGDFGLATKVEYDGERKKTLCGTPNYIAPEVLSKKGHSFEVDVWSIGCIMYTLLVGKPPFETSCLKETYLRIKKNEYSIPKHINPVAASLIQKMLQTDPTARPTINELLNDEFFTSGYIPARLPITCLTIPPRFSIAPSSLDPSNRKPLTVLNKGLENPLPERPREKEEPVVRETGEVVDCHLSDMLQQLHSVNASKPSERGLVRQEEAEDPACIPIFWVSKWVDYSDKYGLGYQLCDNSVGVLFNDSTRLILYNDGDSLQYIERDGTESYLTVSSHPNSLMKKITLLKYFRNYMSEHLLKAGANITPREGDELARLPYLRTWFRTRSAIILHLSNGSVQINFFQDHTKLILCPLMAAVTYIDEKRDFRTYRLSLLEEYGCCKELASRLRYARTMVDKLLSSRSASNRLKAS

**Q.** For `COc1cc2nccc(Oc3ccc(NC(=O)NC4CC4)c(Cl)c3)c2cc1C(N)=O` [Lenvatinib, Lenvatinib mesilate], which IC50 (PDGFRα) is on record?
**A.** 29 nM

**Q.** And the IC50 (CDK6)?
**A.** > 10 µM

**Q.** What about the “macroscopic changes or loss of body weight” value [1] of the same compound?
**A.** no macroscopic changes or loss of body weight were observed

**Q.** What about the IC50 (TCO-1 cells) of the same compound?
**A.** 28 µM

**Q.** And the IC50 (FTC-236 cells)?
**A.** 17 µM

**Q.** And the IC50 (FLT3)?
**A.** 4.1 µM

**Q.** And the IC50 (FGFR4)?
**A.** 43 nM

**Q.** What about the IC50 (PDGFRα(V561D)) of the same compound?
**A.** 25 nM

**Q.** And the IC50 (EPHA1)?
**A.** 5.1 µM

**Q.** What about the IC50 (8505C cells) of the same compound?
**A.** 26 µM

**Q.** What about the IC50 (PLK1) of the same compound?
**A.** > 10 µM

**Q.** And the “phosphorylation of FRS2” value (FRS2)?
**A.** decreased

**Q.** And the IC50 (BRK)?
**A.** 170 nM

**Q.** What about the IC50 (CDK4) of the same compound?
**A.** > 10 µM

**Q.** What about the IC50 (FLT4/VEGFR3) of the same compound?
**A.** 2.3 nM

**Q.** And the IC50 (RAF1)?
**A.** 1600 nM

**Q.** What about the IC50 (FRK) of the same compound?
**A.** 160 nM

**Q.** And the IC50 (EPHB3)?
**A.** > 10 µM

**Q.** And the IC50 (HGK)?
**A.** 400 nM

**Q.** And the IC50 (KHM-5M cells)?
**A.** 28 µM

**Q.** What about the IC50 [2] of the same compound?
**A.** > 10 µM

**Q.** What about the IC50 (PKACα) of the same compound?
**A.** > 10 µM

**Q.** What about the IC50 (FTC-238 cells) of the same compound?
**A.** 18 µM
